# Test results as given in US20070021385A1, “Compositions and methods for wood preservation” (priority 2005, published 2007).
# Columns and labels:
# brown rots or white rots = test: Accelerated decay testing in the lab; conditions: confirmed by accelerated decay testing in the lab
# Excerpt: Provided herein is an organic composition and method for use thereof in treatment of cellulosic material, more particularly wood. The composition comprises an azole or quaternary ammonium fungicide compound, and a pyrethroid insecticide. The composition imparts to the treated wood resistance to both fungi and insects. […] This has been confirmed by accelerated decay testing in the lab.
# decay fungi = test: AWPA E7-01 field stake test, decay ratings, Gainesville, Florida; format: in vivo; set-up: Average Decay Ratings: scale not given here
# Protocol: (§1) Preservative treating solutions were prepared by the mixing the concentrates in Example 1 with ethanol. The treated stakes were installed in Gainesville, Fla. for field performance evaluation following the procedure described in American Wood Preservers' Association (AWPA) Standard E7-01: “Standard Method of Evaluating Wood Preservatives by Field Tests with Stakes”.
# (§2) Preservative treating solutions were prepared by the mixing the concentrates in Example 1 with toluene. The treated stakes were installed in Gainesville, Fla. for field performance evaluation following the procedure described in American Wood Preservers' Association (AWPA) Standard E7-01: “Standard Method of Evaluating Wood Preservatives by Field Tests with Stakes”.
# Preservative treating solutions were prepared by the mixing the concentrates in Example 2 and 13. The treated stakes were installed in Gainesville, Fla. for field performance evaluation following the procedure described in American Wood Preservers' Association (AWPA) Standard E7-01: “Standard Method of Evaluating Wood Preservatives by Field Tests with Stakes”. […]
# (§3) Preservative treating solutions were prepared by the mixing the concentrates in Example 1 with white spirits. The treated stakes were installed in Gainesville, Fla. for field performance evaluation following the procedure described in American Wood Preservers' Association (AWPA) Standard E7-01: “Standard Method of Evaluating Wood Preservatives by Field Tests with Stakes”.
# termites = test: AWPA E7-01 field stake test, termite ratings, Gainesville, Florida; format: in vivo; set-up: Average Termite Ratings: scale not given here
# Protocol: as §1, §2
# Preservative treating solutions were prepared by the mixing the concentrates in Example 2 and 13. The treated stakes were installed in Gainesville, Fla. for field performance evaluation following the procedure described in American Wood Preservers' Association (AWPA) Standard E7-01: “Standard Method of Evaluating Wood Preservatives by Field Tests with Stakes”.
# as §3
smiles,measurement,setting,value
CC1(C)C(C=C(Cl)Cl)C1C(=O)OC(C#N)c1cccc(Oc2ccccc2)c1 (centres unmarked) [cypermethrin],fungicidal activity against brown rots or white rots,brown rots or white rots,do not have fungicidal activity
Cc1c(COC(=O)[C@@H]2[C@H](/C=C(\Cl)C(F)(F)F)C2(C)C)cccc1-c1ccccc1 (racemic) [bifenthrin],fungicidal activity against brown rots or white rots,brown rots or white rots,do not have fungicidal activity
"CC(C)(C)C(O)(CCc1ccc(Cl)cc1)Cn1cncn1 (racemic) [Tebuconazole, (RS)-1-p-chlorophenyl-4,4-dimethyl-3-(1H -1,2,4-triazol-1-ylmethyl)pentan-3-ol]",protection / bio-efficacy against fungal attack (in words),"decay fungi; different retention levels, text summary of Table 1A",certain degree of protection against fungal attack
same,Average Decay Ratings,"decay fungi; retention 0.32 kg/m^3, 12 months, Table 1A, Example 14 ethanol",8.2
same,Average Decay Ratings,"decay fungi; retention 0.32 kg/m^3, 12 months, Table 2A, Example 15 toluene",8.2
same,Average Decay Ratings,"decay fungi; retention 0.32 kg/m^3, 12 months, Table 3A, Example 16 (concentrates of Examples 2 and 13)",8.2
same,Average Decay Ratings,"decay fungi; retention 0.32 kg/m^3, 24 months, Table 1A, Example 14 ethanol",2.6
same,Average Decay Ratings,"decay fungi; retention 0.32 kg/m^3, 24 months, Table 2A, Example 15 toluene",2.6
same,Average Decay Ratings,"decay fungi; retention 0.32 kg/m^3, 24 months, Table 3A, Example 16 (concentrates of Examples 2 and 13)",2.6
same,Average Decay Ratings,"decay fungi; retention 0.32 kg/m^3, 36 months, Table 1A, Example 14 ethanol",0.0
same,Average Decay Ratings,"decay fungi; retention 0.32 kg/m^3, 36 months, Table 2A, Example 15 toluene",0.0
same,Average Decay Ratings,"decay fungi; retention 0.32 kg/m^3, 36 months, Table 3A, Example 16 (concentrates of Examples 2 and 13)",0.0
same,Average Decay Ratings,"decay fungi; retention 0.32 kg/m^3, 48 months, Table 1A, Example 14 ethanol",0.0
same,Average Decay Ratings,"decay fungi; retention 0.32 kg/m^3, 48 months, Table 2A, Example 15 toluene",0.0
same,Average Decay Ratings,"decay fungi; retention 0.32 kg/m^3, 48 months, Table 3A, Example 16 (concentrates of Examples 2 and 13)",0.0
same,Average Decay Ratings,"decay fungi; retention 0.48 kg/m^3, 12 months, Table 1A, Example 14 ethanol",5.8
same,Average Decay Ratings,"decay fungi; retention 0.48 kg/m^3, 12 months, Table 2A, Example 15 toluene",5.8
same,Average Decay Ratings,"decay fungi; retention 0.48 kg/m^3, 12 months, Table 3A, Example 16 (concentrates of Examples 2 and 13)",5.8
same,Average Decay Ratings,"decay fungi; retention 0.48 kg/m^3, 24 months, Table 1A, Example 14 ethanol",0.8
same,Average Decay Ratings,"decay fungi; retention 0.48 kg/m^3, 24 months, Table 2A, Example 15 toluene",0.8
same,Average Decay Ratings,"decay fungi; retention 0.48 kg/m^3, 24 months, Table 3A, Example 16 (concentrates of Examples 2 and 13)",0.8
same,Average Decay Ratings,"decay fungi; retention 0.48 kg/m^3, 36 months, Table 1A, Example 14 ethanol",0.0
same,Average Decay Ratings,"decay fungi; retention 0.48 kg/m^3, 36 months, Table 2A, Example 15 toluene",0.0
same,Average Decay Ratings,"decay fungi; retention 0.48 kg/m^3, 36 months, Table 3A, Example 16 (concentrates of Examples 2 and 13)",0.0
same,Average Decay Ratings,"decay fungi; retention 0.48 kg/m^3, 48 months, Table 1A, Example 14 ethanol",0.0
same,Average Decay Ratings,"decay fungi; retention 0.48 kg/m^3, 48 months, Table 2A, Example 15 toluene",0.0
same,Average Decay Ratings,"decay fungi; retention 0.48 kg/m^3, 48 months, Table 3A, Example 16 (concentrates of Examples 2 and 13)",0.0
same,Average Decay Ratings,"decay fungi; retention 0.64 kg/m^3, 12 months, Table 1A, Example 14 ethanol",8.7
same,Average Decay Ratings,"decay fungi; retention 0.64 kg/m^3, 12 months, Table 2A, Example 15 toluene",8.7
same,Average Decay Ratings,"decay fungi; retention 0.64 kg/m^3, 12 months, Table 3A, Example 16 (concentrates of Examples 2 and 13)",8.7
same,Average Decay Ratings,"decay fungi; retention 0.64 kg/m^3, 24 months, Table 1A, Example 14 ethanol",1.2
same,Average Decay Ratings,"decay fungi; retention 0.64 kg/m^3, 24 months, Table 2A, Example 15 toluene",1.2
same,Average Decay Ratings,"decay fungi; retention 0.64 kg/m^3, 24 months, Table 3A, Example 16 (concentrates of Examples 2 and 13)",1.2
same,Average Decay Ratings,"decay fungi; retention 0.64 kg/m^3, 36 months, Table 1A, Example 14 ethanol",0.0
same,Average Decay Ratings,"decay fungi; retention 0.64 kg/m^3, 36 months, Table 2A, Example 15 toluene",0.0
same,Average Decay Ratings,"decay fungi; retention 0.64 kg/m^3, 36 months, Table 3A, Example 16 (concentrates of Examples 2 and 13)",0.0
same,Average Decay Ratings,"decay fungi; retention 0.64 kg/m^3, 48 months, Table 1A, Example 14 ethanol",0.0
same,Average Decay Ratings,"decay fungi; retention 0.64 kg/m^3, 48 months, Table 2A, Example 15 toluene",0.0
same,Average Decay Ratings,"decay fungi; retention 0.64 kg/m^3, 48 months, Table 3A, Example 16 (concentrates of Examples 2 and 13)",0.0
same,insect / termite attack on treated wood (in words),"termites; different retention levels, text summary of Table 1B",severe insect attack
same,Average Termite Ratings,"termites; retention 0.32 kg/m^3, 12 months, Table 1B, Example 14 ethanol",4.2
same,Average Termite Ratings,"termites; retention 0.32 kg/m^3, 12 months, Table 2B, Example 15 toluene",4.2
same,Average Termite Ratings,"termites; retention 0.32 kg/m^3, 12 months, Table 3B, Example 16 (concentrates of Examples 2 and 13)",4.2
same,Average Termite Ratings,"termites; retention 0.32 kg/m^3, 24 months, Table 1B, Example 14 ethanol",0.6
same,Average Termite Ratings,"termites; retention 0.32 kg/m^3, 24 months, Table 2B, Example 15 toluene",0.6
same,Average Termite Ratings,"termites; retention 0.32 kg/m^3, 24 months, Table 3B, Example 16 (concentrates of Examples 2 and 13)",0.6
same,Average Termite Ratings,"termites; retention 0.32 kg/m^3, 36 months, Table 1B, Example 14 ethanol",0.0
same,Average Termite Ratings,"termites; retention 0.32 kg/m^3, 36 months, Table 2B, Example 15 toluene",0.0
same,Average Termite Ratings,"termites; retention 0.32 kg/m^3, 36 months, Table 3B, Example 16 (concentrates of Examples 2 and 13)",0.0
same,Average Termite Ratings,"termites; retention 0.32 kg/m^3, 48 months, Table 1B, Example 14 ethanol",0.0
same,Average Termite Ratings,"termites; retention 0.32 kg/m^3, 48 months, Table 2B, Example 15 toluene",0.0
same,Average Termite Ratings,"termites; retention 0.32 kg/m^3, 48 months, Table 3B, Example 16 (concentrates of Examples 2 and 13)",0.0
same,Average Termite Ratings,"termites; retention 0.48 kg/m^3, 12 months, Table 1B, Example 14 ethanol",4.5
same,Average Termite Ratings,"termites; retention 0.48 kg/m^3, 12 months, Table 2B, Example 15 toluene",4.5
same,Average Termite Ratings,"termites; retention 0.48 kg/m^3, 12 months, Table 3B, Example 16 (concentrates of Examples 2 and 13)",4.5
same,Average Termite Ratings,"termites; retention 0.48 kg/m^3, 24 months, Table 1B, Example 14 ethanol",1.2
same,Average Termite Ratings,"termites; retention 0.48 kg/m^3, 24 months, Table 2B, Example 15 toluene",1.2
same,Average Termite Ratings,"termites; retention 0.48 kg/m^3, 24 months, Table 3B, Example 16 (concentrates of Examples 2 and 13)",1.2
same,Average Termite Ratings,"termites; retention 0.48 kg/m^3, 36 months, Table 1B, Example 14 ethanol",0.0
same,Average Termite Ratings,"termites; retention 0.48 kg/m^3, 36 months, Table 2B, Example 15 toluene",0.0
same,Average Termite Ratings,"termites; retention 0.48 kg/m^3, 36 months, Table 3B, Example 16 (concentrates of Examples 2 and 13)",0.0
same,Average Termite Ratings,"termites; retention 0.48 kg/m^3, 48 months, Table 1B, Example 14 ethanol",0.0
same,Average Termite Ratings,"termites; retention 0.48 kg/m^3, 48 months, Table 2B, Example 15 toluene",0.0
same,Average Termite Ratings,"termites; retention 0.48 kg/m^3, 48 months, Table 3B, Example 16 (concentrates of Examples 2 and 13)",0.0
same,Average Termite Ratings,"termites; retention 0.64 kg/m^3, 12 months, Table 1B, Example 14 ethanol",4.8
same,Average Termite Ratings,"termites; retention 0.64 kg/m^3, 12 months, Table 2B, Example 15 toluene",4.8
same,Average Termite Ratings,"termites; retention 0.64 kg/m^3, 12 months, Table 3B, Example 16 (concentrates of Examples 2 and 13)",4.8
same,Average Termite Ratings,"termites; retention 0.64 kg/m^3, 24 months, Table 1B, Example 14 ethanol",2.0
same,Average Termite Ratings,"termites; retention 0.64 kg/m^3, 24 months, Table 2B, Example 15 toluene",2.0
same,Average Termite Ratings,"termites; retention 0.64 kg/m^3, 24 months, Table 3B, Example 16 (concentrates of Examples 2 and 13)",2.0
same,Average Termite Ratings,"termites; retention 0.64 kg/m^3, 36 months, Table 1B, Example 14 ethanol",0.0
same,Average Termite Ratings,"termites; retention 0.64 kg/m^3, 36 months, Table 2B, Example 15 toluene",0.0
same,Average Termite Ratings,"termites; retention 0.64 kg/m^3, 36 months, Table 3B, Example 16 (concentrates of Examples 2 and 13)",0.0
same,Average Termite Ratings,"termites; retention 0.64 kg/m^3, 48 months, Table 1B, Example 14 ethanol",0.0
same,Average Termite Ratings,"termites; retention 0.64 kg/m^3, 48 months, Table 2B, Example 15 toluene",0.0
same,Average Termite Ratings,"termites; retention 0.64 kg/m^3, 48 months, Table 3B, Example 16 (concentrates of Examples 2 and 13)",0.0
CC1(C)C(C=C(Cl)Cl)C1C(=O)OCc1cccc(Oc2ccccc2)c1 (centres unmarked) [permethrin],fungicidal activity against brown rots or white rots,brown rots or white rots,do not have fungicidal activity
